# Data published in patent US20230114627A1, “COMPOSITION COMPRISING A METAL ASCORBO-CAMPHORATE COMPOUND AND METHOD FOR PREVENTION AND/OR TREATMENT OF PAPILLOMAVIRUS INFECTIONS” (MGB PHARMA Inc., priority 2020, published 2023).
# Where two headings read alike, the source gives them in different places.
# Columns and labels:
# Vero cells = experiment: MTT cytotoxicity assay on Vero cells; assay type: cell-based
# Method: (§1) The cytotoxicity study was conducted on three types of cells: on Vero cells, on human diploid MRC5 cells (human fibroblast and embryonic type), and on Cos-7 cells. […] The latter forms crystals with the highly metabolic living cells.
# (§2) The absorbance at 490 nm of the dissolved crystals corresponds to the number of living cells.
# In a first series of tests, the Cytotoxicity of said ascorbo-camphorate on Vero cells was verified with these solutions at dilution rates ranging from one tenth to one billionth.
# [1] = test system: CaCo-2 (intestinal cells); experiment: XTT cell viability (KIT Tox-2) on CaCo-2; assay type: cell-based; conditions: CaCo-2, 24 hours, 1 μM to 500 μM tested
# Method: (§3) In this example, the cell viability as a measure of non-toxicity was assessed using KIT Tox-2 XTT Sigma Aldrich, where cell viability was measured in terms of the ability of cells to degrade a colorless compound into a colored compound (mitochondrial enzymes) using color intensity as being proportional to the cell viability. Three cell lines as models were used including HEC-1A (line of endocervical origin), SiHa (vaginal cells), and CaCo-2 (intestinal cells). […] KIT Tox-2 XTT Sigma Aldrich.
# CaCo-2 = experiment: Transepithelial electrical resistance (TEER) of CaCo-2 monostratified epithelium; assay type: cell-based; conditions: CaCo-2, up to 500 μM, 24 hours
# human diploid MRC5 cells = experiment: MTT cytotoxicity assay on MRC5 cells; assay type: cell-based
# Method: as §1, §2
# In a second series of tests, the cytotoxicity of said ascorbo-camphorate on MRC5 cells was tested with the solutions at dilution ratios ranging from 0 to 100 millionths.
# [2] = test system: HEC-1A (line of endocervical origin); experiment: XTT cell viability (KIT Tox-2) on HEC-1A; assay type: cell-based; conditions: 24 hours, 1 μM to 500 μM tested
# Method: as §3
# SiHa (vaginal cells) = experiment: XTT cell viability (KIT Tox-2) on SiHa; assay type: cell-based; conditions: 24 hours, 1 μM to 500 μM tested
# Method: as §3
# [3] = test system: VLP-16 pseudovirions of the HPV-16 virus; conditions: for inhibitory concentration 50 (IC50) / IC50: estimated; for IC50: read-out: inhibitory concentration 50 (IC50)
# Method: This experiment provides the data and analysis of an in vitro “AC” experimental treatment against the HPV-16 papillomavirus which was carried out by neutralizing the entry of viral pseudo particles (VLP-16) of the HPV-16 virus which was inoculated into Cos-7 cells, pretreated or treated contemporaneously to the inoculation of the VLP-16 with solutions of increasing concentrations of the said ascorbo-camphorate compound (AC).
# In the case of the present tests in this example, pseudovirions were produced at the Université François Rabelais de Tours (France), under the direction of Professor A. Touzet. In brief, the VLP-16 virus pseudo particles or pseudovirions or VLPs were produced by transfection of purified plasmids containing the L1 and L2 structural proteins of the HPV-16 capsomers, and carrying a gene encoding the luciferase marker gene, into cell culture of the 293-cell line. VLP-16s were collected by nuclear lysis, with purification by […] gradient ultracentrifugation.
# The positive control for the neutralization assay as disclosed herein used purified VLP-16 inoculum pre-incubated with purified antibodies against HPV (incubation for 1 hour of said VLP nuclear lysate in a solution of anti-HPV antibodies in DMED culture medium). These anti-HPV antibodies served as a positive control in the plaque assay for neutralization of Cos-7 cell infection by VLP-16.
# Cells of the Cos-7 cell line were cultured in 96-well microplates, 5% CO2 and 98% H2O, at 37° C. Inoculation of Cos-7 cells was performed as follows: the inoculum mixture was added to the wells containing the confluent Cos-7 sheets, incubated for 72 hours at 37° C., 5% CO2 and 98% H2O, and the supernatant is washed and discarded from the mixture.
# Cos-7 cells that may have internalized the luciferase-expressing VLPs were then recovered. The Cos-7 cells were then lysed; then the substrate (luciferin) of the reporter gene (luciferase) was added with dark incubation, for reading using a luminometer.
# For each series, the experiments were repeated three times.
# To assess pseudovirions infectivity, linear reporter gene expression and to perform titration of pseudovirions solutions, Cos-7 cells were grown (10^4 cells/well) in supplemented DMEM in 96-well plates (Thermo Fisher Scientific) in 5% CO2 at +37° C. until cell confluence was 40-50%. Cells were transduced by replacing the culture medium with fresh unsupplemented DMEM containing serial dilutions of the previously produced PsVs stock solutions and incubated at +37° C. One well containing 1 μg of the pGL4.10[luc2] vector, encoding the luciferase reporter gene, was made as a positive control and another was the cell control for background luminescence (without PsVs or reporter plasmid). After a 3 hours incubation period, 100 μL of growth medium was added to each well and the transduced Cos-7 cells were incubated for 48 h at +37° C. in 5% CO2. Then, the growth medium was removed and the transduced Cos-7 cells were washed with DPBS and incubated in the dark for 15 min in 100 μL of Pierce™ Firefly Luciferase One-Step Glow Assay (Thermo Fisher Scientific). The resulting cell lysates were harvested and transferred to white, 96-well microplates and luciferase enzyme activity was measured using the Luminoskan Ascent brand luminometer (from Thermo Fisher Scientific) after adding 50 μL of luciferin substrate to each well.
# Serial dilutions of the stock solution of compound “AC” covering an appropriate concentration range were subjected to an HPV inhibition assay based on VLP-16 pseudovirions.
# Cos-7 cells = experiment: Colorimetric cell viability assay on Cos-7 cells; assay type: cell-based; conditions: 24 hours, estimated; read-out: 50% cytotoxic concentration (CC50)
# Method: as §1
# In a third series of tests, the cytotoxicity of said ascorbo-camphorate on Cos-7 cells was verified. High concentrations of said ascorbo-camphorate may be required to produce an effective formulation. Therefore, the intrinsic toxicity of concentrations of said ascorbo-camphorate up to 5,000 μg/mL was evaluated using a colorimetric cell viability assay. Cos-7 cells were exposed to serial dilutions of the stock solution of said ascorbo-camphorate for 24 hours.
# The viability index, or the fraction of viable cells after microbicide treatment relative to the fraction of viable cells exposed to the control condition, was calculated. Cells treated with 0.1% PBS-azide solution were used as a positive control for toxicity. The viability index, or the fraction of viable cells after treatment with the compound “AC” relative to the fraction of viable cells exposed to the natural state, was calculated. […] The 50% cytotoxic concentration (CC50) of said ascorbic camphorate was calculated using a dose-response-inhibition analysis on GraptiPad Prism v5.04 software (from GraphPad Software).
# [4] = pseudovirions added simultaneously
substance,measurement,setting,value
zinc tetra-ascorbo-camphorate [C14],percentage of living cells remaining,Vero cells; 50-fold dilution of 0.05155 M stock,greater than or equal to 50%
same,"molarity of solutions tolerable by Vero cells (upper limit, value excluded)",Vero cells; lower limit tested 5.15.10^−5 μM,< 1031 µM
same,concentrations without toxicity to epithelial cells,[1],less than or equal to 125 μM
same,effect on TEER,CaCo-2,does not affect the TEER
same,"molarity of solutions tolerable by MRC5 cells (upper limit, exclusive value)",human diploid MRC5 cells; lower limit tested 5.15.10-4 μM,< 5155 µM
same,percentage of living cells remaining,human diploid MRC5 cells; one-tenth dilution of 0.05155 M stock,greater than or equal to 50%
same,concentrations without toxicity to epithelial cells,[2],less than or equal to 125 μM
same,concentrations without toxicity to epithelial cells,SiHa (vaginal cells),less than or equal to 125 μM
same,inhibition of VLP-16 internalization,"[3]; contemporaneous addition, 1/10 dilution (515.5 μM)",Total inhibition
same,inhibition of VLP-16 penetration into Cos-7 cells,"[3]; contemporaneous addition, dilution 1:10^3 (51.5 μM)",33%
same,inhibitory concentration 50 (IC50),[3]; pre-treatment of Cos-7 cells,2.8 µg/mL
same,inhibition of penetration of VLP-16 into Cos-7 cells,"[3]; pretreatment, compared to untreated infected controls",30-40%
same,inhibition of VLP-16 internalization,"[3]; pretreatment, dilution 1/10^2 (515.5 μM)",total inhibition
same,inhibitory concentration 50 (IC50),[3]; [4],8.1 µg/mL
same,IC50,[3]; pre-treatment of Cos-7 cells,2.9 µM
same,IC50,[3]; [4],8.3 µM
same,CC50,Cos-7 cells,> 5150 µM
